Laboratory results: patent publication US7601746B2 (Shionogi & Co., Ltd., priority 2003, dated 2009)
pEC50: −log10 of the molar value.

Molecular target: T1, human TPO receptor (hTPOR) (Homo sapiens, UniProt P40238)
T1 construct: expressed in transfected cells; host or cells: BaF-B03 (murine IL-3 dependent cell line)
T1 sequence (P40238 26-635): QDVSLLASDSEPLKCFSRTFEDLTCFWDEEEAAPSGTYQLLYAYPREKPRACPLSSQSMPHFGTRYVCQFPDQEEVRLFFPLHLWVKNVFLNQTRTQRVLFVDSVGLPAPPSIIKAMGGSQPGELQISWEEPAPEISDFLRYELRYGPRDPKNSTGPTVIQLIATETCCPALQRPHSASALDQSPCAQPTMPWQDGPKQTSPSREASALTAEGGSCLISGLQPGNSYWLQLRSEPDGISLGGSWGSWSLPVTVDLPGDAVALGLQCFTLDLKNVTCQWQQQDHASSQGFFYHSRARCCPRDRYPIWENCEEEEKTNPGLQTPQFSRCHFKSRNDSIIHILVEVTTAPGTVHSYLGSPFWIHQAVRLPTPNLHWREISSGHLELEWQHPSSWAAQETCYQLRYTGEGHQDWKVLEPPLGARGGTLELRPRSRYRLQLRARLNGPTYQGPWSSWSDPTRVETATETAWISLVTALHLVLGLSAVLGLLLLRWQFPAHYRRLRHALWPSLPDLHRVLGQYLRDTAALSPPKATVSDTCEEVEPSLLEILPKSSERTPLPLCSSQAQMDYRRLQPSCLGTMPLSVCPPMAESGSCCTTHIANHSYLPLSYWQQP
Assay: Thrombopoietic activity: proliferation of TPO dependent BaF/hTPOR cells (WST-1, absorbance at 450 nm)
Assay type: cell-based
Conditions: 20 h + 4 h WST-1, ED50 = half concentration of the concentration showing the maximum thrombopoietic activity, Table 1
Method in brief: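 Proliferation read-out: WST-1 absorbance at 450 nm after 20 h compound exposure plus 4 h reagent, using IL-3-deprived BaF/hTPOR cells (5×10^4 per well) dependent on human TPO receptor signalling. ED50 defined as half the concentration producing maximal activity.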

Q: How did the pEC50 turn out when `COc1c(CCCOCCC(C)(C)C)cccc1-c1csc(NC(=O)c2cc(F)c(/C=C(\C)C(=O)O)c(F)c2)n1` [Compound B521, (E)-3-[4-(4-{3-[3-(3,3-dimethylbutyloxy)propyl]-2-methyloxyphenyl}thiazol-2-ylcarbamoyl}-2,6-difluorophenyl)-2-methylacrylic acid] was run?
A: 7.77

Q: How did the pEC50 turn out when `CCC(CC)COCCc1cccc(-c2csc(NC(=O)c3cc(Cl)c(/C=C(\OC)C(=O)O)c(Cl)c3)n2)c1OC` [Compound B1960, (Z)-3-[2,6-dicholoro-4-(4-{3-[2-(2-ethylbutyloxy)ethyl]-2-methyloxyphenyl}thiazol-2-ylcarbamoyl)phenyl]-2-methyloxyacrylic acid] was run?
A: 7.99

Q: How did the pEC50 turn out when `CCOC(c1cccc(-c2csc(NC(=O)c3cc(F)c(C=C(C)C(=O)O)c(F)c3)n2)c1F)C(C)(C)C` (stereo not shown) [Compound B10, 3-(2,6-difluoro-4-{4-[3-(1-ethyloxy-2,2-dimethylpropyl)-2-fluorophenyl]thiazol-2-ylcarbamoyl}phenyl)-2-methylacrylic acid] was run?
A: 8.72

Q: How did the pEC50 turn out when `CCCCCCc1cccc2c1OCc1sc(NC(=O)c3cc(F)c(/C=C(\C)C(=O)O)c(F)c3)nc1-2` [Compound A1314, (E)-3-[2,6-difluoro-4-(6-hexyl-4H-chromeno[4,3-d]thiazol-2-ylcabamoyl)phenyl]-2-methylacrylic acid] was run?
A: 7.90

Q: How did the pEC50 turn out when `COC(c1cccc(-c2csc(NC(=O)c3cc(F)c(C=C(C)C(=O)O)c(F)c3)n2)c1F)C(C)(C)C` (stereo not shown) [Compound B13, 3-(2,6-difluoro-4-{4-[2-fluoro-3-(1-methyloxy-2,2-dimethylpropyl)phenyl]thiazol-2-ylcarbamoyl}phenyl)-2-methylacrylic acid] was run?
A: 9.00

Q: `CCOC(c1cccc(-c2csc(NC(=O)c3cc(Cl)c(C=C(C)C(=O)O)c(Cl)c3)n2)c1F)C(C)(C)C` (stereo not shown) [Compound B56, 3-(2,6-dichloro-4-{4-[3-(1-ethyloxy-2,2-dimethylpropyl)-2-fluorophenyl]thiazol-2-ylcarbamoyl}phenyl)-2-methylacrylic acid] was tested. Which pEC50 did it give?
A: 8.57

Q: `CCCC(OCC)c1cccc(-c2csc(NC(=O)c3cc(F)c(C=C(C)C(=O)O)c(F)c3)n2)c1F` (stereo not shown) [Compound B24, 3-(2,6-difluoro-4-{4-[3-(1-ethyloxybutyl)-2-fluorophenyl]thiazol-2-ylcarbamoyl}phenyl)-2-methylacrylic acid] was tested. Which pEC50 did it give?
A: 8.71

Q: With `CCCCCCOCCCc1cccc(-c2csc(NC(=O)c3cc(F)c(/C=C(\C)C(=O)O)c(F)c3)n2)c1OC` [Compound B505, (E)-3-(2,6-difluoro-4-{4-[3-(3-hexyloxypropyl)-2-methyloxyphenyl]thiazol-2-ylcarbamoyl}phenyl)-2-methylacrylic acid] as the compound, how does the pEC50 read?
A: 7.92

Q: How did the pEC50 turn out when `COc1c(CCOCC2CCCCC2)cccc1-c1csc(NC(=O)c2cc(F)c(/C=C(\C)C(=O)O)c(F)c2)n1` [Compound B1957] was run?
A: 7.89

Q: How did the pEC50 turn out when `CCC(CC)COCCCc1cccc(-c2csc(NC(=O)c3cc(F)c(C=C(C)C(=O)O)c(F)c3)n2)c1F` [Compound B43, 3-[2,6-difluoro-4-(4-{3-[3-(2-ethylbutyloxy)propyl]-2-fluorophenyl}thiazol-2-ylcarbamoyl}phenyl)-2-methylacrylic acid] was run?
A: 8.78

Q: `CCCCOC(C)c1cccc(-c2csc(NC(=O)c3cc(F)c(C=C(C)C(=O)O)c(F)c3)n2)c1F` (stereo not shown) [Compound B50, 3-(4-{4-[3-(1-n-butyloxyethyl)-2-fluorophenyl]thiazol-2-ylcarbamoyl}-2,6-difluorophenyl)-2-methylacrylic acid] was tested. Which pEC50 did it give?
A: 9.10

Q: With `CCCCCCCOCCc1cccc(-c2csc(NC(=O)c3cc(F)c(/C=C(\OC)C(=O)O)c(F)c3)n2)c1OC` [Compound B1953, (Z)-3-(2,6-difluoro-4-{4-[3-(2-heptyloxyethyl)-2-methyloxyphenyl]thiazol-2-ylcarbamoyl}phenyl)-2-methyloxyacrylic acid] as the compound, how does the pEC50 read?
A: 8.00

Q: `CC(=Cc1c(F)cc(C(=O)Nc2nc(-c3cccc(CCC(C)(C)C)c3F)cs2)cc1F)C(=O)O` [Compound B2, 3-(2,6-difluoro-4-{4-[3-(3,3-dimethylbutyl)-2-fluorophenyl]thiazol-2-ylcarbamoyl}phenyl)-2-methylacrylic acid] was tested. Which pEC50 did it give?
A: 8.40

Q: With `CCCCCCCCCCC(OC)c1cccc(-c2csc(NC(=O)c3cc(F)c(/C=C(\C)C(=O)O)c(F)c3)n2)c1OC` (stereo not shown) [Compound B355, (E)-3-(2,6-difluoro-4-{4-[2-methyloxy-3-(1-methyloxyundecyl)phenyl]thiazol-2-ylcarbamoyl}phenyl)-2-methylacrylic acid] as the compound, how does the pEC50 read?
A: 8.48

Q: How did the pEC50 turn out when `CCCCOC(CC)c1cccc(-c2csc(NC(=O)c3cc(F)c(/C=C(\C)C(=O)O)c(F)c3)n2)c1OC` (stereo not shown) [Compound B418, (E)-3-(4-{4-[3-(1-butyloxypropyl)-2-methyloxyphenyl]thiazol-2-ylcarbamoyl}-2,6-difluorophenyl)-2-methylacrylic acid] was run?
A: 8.20

Q: With `COc1c(COCCC(C)(C)C)cccc1-c1csc(NC(=O)c2cc(Cl)c(C=C(C)C(=O)O)c(Cl)c2)n1` (stereo in doubt) [Compound B1936, (Z)-3-(2,6-dichloro-4-{4-[3-(3,3-dimethylbutyloxymethyl)-2-methyloxyphenyl]thiazol-2-ylcarbamoyl}phenyl)-2-methylacrylic acid] as the compound, how does the pEC50 read?
A: 7.77

Q: With `CCCCCCCCCC(OC)c1cccc(-c2csc(NC(=O)c3cc(F)c(C=C(C)C(=O)O)c(F)c3)n2)c1F` (stereo not shown) [Compound B9, 3-(2,6-difluoro-4-{4-[2-fluoro-3-(1-methyloxydecyl)phenyl]thiazol-2-ylcarbamoyl}phenyl)-2-methylacrylic acid] as the compound, how does the pEC50 read?
A: 8.80

Q: With `CCCCC(OCCC)c1cccc(-c2csc(NC(=O)c3cc(Cl)c(C=C(C)C(=O)O)c(Cl)c3)n2)c1F` (stereo not shown) [Compound B86, 3-(2,6-dichloro-4-{4-[2-fluoro-3-(1-n-propyloxypentyl)phenyl]thiazol-2-ylcarbamoyl}phenyl)-2-methylacrylic acid] as the compound, how does the pEC50 read?
A: 9.20

Q: With `CCCCCOC(c1cccc(-c2csc(NC(=O)c3cc(F)c(/C=C(\C)C(=O)O)c(F)c3)n2)c1OC)C1CCCCC1` (stereo not shown) [Compound B484] as the compound, how does the pEC50 read?
A: 8.89

Q: How did the pEC50 turn out when `CCCOCCCC(OC)c1cccc(-c2csc(NC(=O)c3cc(F)c(/C=C(\C)C(=O)O)c(F)c3)n2)c1OC` (stereo not shown) [Compound B1799, (E)-3-(2,6-difluoro-4-{4-[2-methyloxy-3-(1-methyloxy-4-propyloxybutyl)phenyl]thiazol-2-ylcarbamoyl}phenyl)-2-methylacrylic acid] was run?
A: 7.76

Q: With `CCCCCCCCCC(OC)c1cccc(-c2csc(NC(=O)c3cc(Cl)c(/C=C(\C)C(=O)O)c(Cl)c3)n2)c1OC` (stereo not shown) [Compound B1059, (E)-3-(2,6-dichloro-4-{4-[2-methyloxy-3-(1-methyloxydecyl)phenyl]thiazol-2-ylcarbamoyl}phenyl)-2-methylacrylic acid] as the compound, how does the pEC50 read?
A: 8.49

Q: How did the pEC50 turn out when `CCCCCCCCC(OC)c1cccc(-c2csc(NC(=O)c3cc(F)c(C=C(C)C(=O)O)c(F)c3)n2)c1F` (stereo not shown) [Compound B28, 3-(2,6-difluoro-4-{4-[2-fluoro-3-(1-methyloxynonyl)phenyl]thiazol-2-ylcarbamoyl}phenyl)-2-methylacrylic acid] was run?
A: 9.10

Q: With `CCCCCCOCCC(OC)c1cccc(-c2csc(NC(=O)c3cc(F)c(C=C(C)C(=O)O)c(F)c3)n2)c1F` (stereo not shown) [Compound B52, 3-(2,6-difluoro-4-{4-[2-fluoro-3-(3-n-hexyloxy-1-methyloxyproyl)phenyl]thiazol-2-ylcarbamoyl}phenyl)-2-methylacrylic acid] as the compound, how does the pEC50 read?
A: 8.77

Same assay, conditions: 20 h + 4 h WST-1, ED50 = half concentration of the concentration showing the maximum thrombopoietic activity, Table 2

Q: With `CO/C(=C\c1c(Cl)cc(C(=O)Nc2nc(-c3cccc(CCCOCC(C)(C)C)c3F)c(OC)s2)cc1Cl)C(=O)O` [Compound B1905] as the compound, how does the pEC50 read?
A: 7.57

Q: `COc1c(CCCOCC(C)C)cccc1-c1csc(NC(=O)c2cc(Cl)c(/C=C(\C)C(=O)O)c(Cl)c2)n1` [Compound B1878, (E)-3-(2,6-dichloro-4-{4-[3-(3-isobuyloxypropyl)-2-methyloxyphenyl]thiazol-2-ylcarbamoyl}phenyl)-2-methylacrylic acid] was tested. Which pEC50 did it give?
A: 7.67

Q: How did the pEC50 turn out when `CCCCCCCOc1cccc(-c2csc(NC(=O)c3cc(F)c(/C=C(\OC)C(=O)O)c(F)c3)n2)c1OC` [Compound B2000, (Z)-3-{2,6-difluoro-4-[4-(3-heptyloxy-2-methyloxyphenyl)thiazol-2-ylcarbamoyl]phenyl}-2-methyloxyacrylic acid] was run?
A: 7.69

Q: With `COc1c(CCOCCCCCl)cccc1-c1csc(NC(=O)c2cc(Cl)c(/C=C(\C)C(=O)O)c(Cl)c2)n1` [Compound B1963, (E)-3-[2,6-dichloro-4-(4-{3-[2-(4-chlorobutyloxy)ethyl]-2-methyloxyphenyl}thiazol-2-ylcarbamoyl)phenyl]-2-methylacrylic acid] as the compound, how does the pEC50 read?
A: 7.54

Q: `COc1cccc(-c2csc(NC(=O)c3cc(Cl)c(/C=C(\C)C(=O)O)c(Cl)c3)n2)c1F` [Compound B2018, (E)-3-{2,6-dichloro-4-[4-(2-fluoro-3-methyloxyphenyl)thiazol-2-ylcarbamoyl]phenyl}-2-methylacrylic acid] was tested. Which pEC50 did it give?
A: 7.63
